The text below walks through data of PubChem BioAssay (NCI).

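Method: 48-hour compound exposure of cells in 96-well plates, five concentrations, linear interpolation of endpoints. GI50 marks 50% less growth. TGI is the concentration that stops growth completely.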 Bounds are passed on as bounds.

Common to all, as to experiment: DTP human tumour cell line panel, 48 h
Test [1] has as its system HCC-2998 colon.
Test [2] relates to NCI-H460 lung.
For test [3], the system named is SF-295 CNS.
For test [4], the system named is OVCAR-3 ovarian.
Test [5] relates to HCT-116 colon.
Test [6] concerns TK-10 renal.
The subject of test [7] is 786-0 renal.
Test [8] concerns CCRF-CEM leukemia.
For test [9], the system named is A498 renal.
Test [10] relates to BT-549 breast.

Turning to `C=C1N(C=O)C(C)(C)N(O)C1(C)C`, the TGI in [1], in [2], in test [3], in test [4], in test [5] and in [6] was above 100 µM in each case. Also, in test [7], the TGI – broadly, the concentration at which net growth stops – is above 100 µM.

For the compound `CS(=O)(=O)CSCSSCS(C)(=O)=O`, the concentration for total growth inhibition (TGI) in test [8] is 70.5 µM; in test [1] it was above 100 µM; in test [2] it was above 84.8 µM; in test [3] it was 55.7 µM; in [4], above 100 µM; in test [9], above 100 µM. Further, the concentration for total growth inhibition (TGI) in test [5] was above 100 µM; in test [6], above 100 µM; in [7], 41.3 µM.

For the compound `O=C(N/N=C(/CCN1CCCC1)CC(c1ccccc1)c1c(O)c2ccccc2oc1=O)c1ccncc1` (stereo not given), the concentration for total growth inhibition (TGI) in test [8], in [1], in test [2], in test [3], in test [4] and in test [9] was above 100 µM each time. The TGI in test [5], in test [6] and in [7] was above 100 µM in each case.

Take `COc1ccc(Nc2nc(N)c(C(=O)c3c[nH]c4ccccc34)s2)cc1`: the TGI in test [8] was 6.02 µM; in test [2], 6.83 µM; in [3] it was above 100 µM; in test [4] it was 4.14 µM; in [9] it was 16.3 µM; in [5], 6.58 µM. Besides, the TGI in [6] was above 30.7 µM; in [10], above 40.5 µM; in test [7], 13.6 µM.

With `CCC1=C(C(C)=O)[C@@H]2CCCCC[C@@H](C(=O)OC)C2C1=O` (stereo not given in full), the TGI in test [8], in [1], in test [2], in test [3], in test [9] and in test [5] was above 100 µM each time. For the same compound, the TGI in [6] and in test [7] was above 100 µM throughout.

On to `CCc1c(CNc2ccc(C(=O)NC(CC(=O)O)C(=O)O)cc2)ccc2nc(N)nc(N)c12` (stereo not given), for which the TGI in [8], in test [2], in test [3], in test [4], in test [5] and in test [6] was above 1000 µM each time. Also, the total growth inhibition concentration (TGI) in test [10] and in test [7] was above 1000 µM throughout. The GI50 (usually the concentration giving 50% growth inhibition) in test [4] was 52.8 µM; in [6], above 1000 µM; in test [10], 685 µM.

On to `COc1cc2cc(C(=O)N3C[C@H](CCl)c4c3cc(N)c3ccccc43)[nH]c2c(OC)c1OC`, for which the GI50 was 0.005 µM in test [8]; below 0.005 µM in [1]; 0.005 µM in test [2]; 0.005 µM in test [3]; 0.005 µM in [4]; 0.005 µM in [5]. Also, the TGI in test [8] was above 50 µM; in test [1], below 0.005 µM; in test [2], 0.0067 µM; in [3], above 50 µM; in test [4], 0.936 µM; in test [9] it was 0.0318 µM. Moreover, the values for the concentration for total growth inhibition (TGI) in test [5] and in [6] were 0.6 µM and 10.3 µM, respectively.

Turning to `CCCCOc1ccc(OCCCCCCCCCC[N+](C)(C)C)cc1`, the TGI worked out at 3.87 µM in test [8]; 6.28 µM in test [1]; 12.7 µM in test [2]; 19.9 µM in [3]; 7.89 µM in test [4]; 28.6 µM in [9]. The TGI in [5] was 9.31 µM.

Regarding `O=S(=O)(O)c1ccc(N=Nc2ccc(N=Nc3ccc(/C=C/c4ccc(N=[N+]([O-])c5ccc(/C=C/c6ccc(N=Nc7ccc(N=Nc8ccc(S(=O)(=O)O)cc8)cc7)cc6S(=O)(=O)O)c(S(=O)(=O)O)c5)cc4S(=O)(=O)O)c(S(=O)(=O)O)c3)cc2)cc1`, the concentration for total growth inhibition (TGI) in test [8], in [1], in test [2], in test [3], in test [4] and in [9] was above 100 µM throughout. Moreover, the concentration for total growth inhibition (TGI) in test [5] is above 100 µM.

For the compound `Cc1cc(C)nc(NS(=O)(=O)c2ccc(Nc3c4ccccc4nc4c(C(=O)N5CCN(CCOS(C)(=O)=O)CC5)cccc34)cc2)n1`, the TGI in test [8], in test [1], in test [2], in test [3], in [4] and in [9] was above 100 µM throughout. Further, the concentration for total growth inhibition (TGI) in test [5] and in [6] was above 100 µM throughout.

`COC(=O)[C@@H]1CCCCC[C@H]2C(CO)=C(C)C(=O)C12` (stereo not given in full): the TGI in test [8], in test [1], in test [2], in test [3], in [9] and in [5] was above 100 µM each time. The TGI in [6] and in test [7] was above 100 µM in each case.

With `COc1cc(C(c2c(O)c3ccccc3oc2=O)c2c(O)c3ccccc3oc2=O)cc(Br)c1O`, the TGI in [3] came out at 40.3 µM; in test [4], 30.9 µM; in [9] it was 29.4 µM; in [5], 32.7 µM; in test [6], 30.6 µM; in test [10], 32.5 µM. For the same compound, in test [7], the concentration for total growth inhibition (TGI) amounted to 37.8 µM.

`CCOC(=O)C1(C#N)C(c2ccccc2)CC(O)(c2ccc(Cl)cc2)C(C(=O)c2ccc(Cl)cc2)C1c1ccccc1` (stereo not given): the TGI in test [8], in [1], in test [2], in test [3], in test [4] and in test [5] was above 100 µM in each case. Also, the TGI in test [6] and in [7] was above 100 µM each time.

As for `COC(=O)C(=O)C(C(=O)C(=O)Nc1cccc(C(C)=O)c1)c1nc2ccccc2[nH]c1=O` (stereo not given), the concentration for total growth inhibition (TGI) in [8], in test [1], in test [2], in test [3], in test [4] and in [9] was above 100 µM each time. Further, the TGI in test [6] and in [7] was above 100 µM in each case.

Regarding `CN(C)/N=C(/c1nc2ccc(Cl)cc2[nH]c1=O)C(O)c1ccc(C(O)/C(=N\N(C)C)c2nc3ccc(Cl)cc3[nH]c2=O)cc1` (stereo not given), the TGI in test [8], in test [1], in test [2], in test [3], in [4] and in [9] was above 100 µM in each case. Further, the TGI in test [5], in test [6] and in [7] was above 100 µM in each case.

`CCP(=O)(OC)C1=CCN(C(=O)OCC[Si](C)(C)C)CC1` (stereo not given): the TGI in test [8], in test [1], in test [2], in [3], in test [4] and in [9] was above 100 µM throughout. For the same compound, the concentration for total growth inhibition (TGI) in [6] and in test [7] was above 100 µM in each case.

Regarding `NCCCCNCCCNC(=O)c1nc(-c2nc(CCN)sc2Cl)sc1Cl`, the TGI in [8], in [1], in [2], in test [3], in test [4] and in test [9] was above 100 µM in each case. Also, the TGI in [5] and in test [6] was above 100 µM each time.

As for `CCOC(=O)c1s/c(=N\Nc2nc3ccccc3cc2C2OCCO2)n(Cc2ccccc2)c1C`, the concentration for total growth inhibition (TGI) in test [8], in [2], in [3], in test [4], in [9] and in test [5] was above 100 µM throughout. Further, the TGI in test [6] and in test [7] was above 100 µM in each case.

On to `C/C(Cl)=N\OC(=O)Nc1ccc(C)cc1`, for which the concentration for total growth inhibition (TGI) in test [8] worked out at 6.31 µM; in [1], 31.4 µM; in test [2], 33.4 µM; in [3], 30.5 µM; in test [4], 34.3 µM; in test [9], 32.9 µM. For the same compound, the total growth inhibition concentration (TGI) in test [5] came to 38.6 µM; in [6], 28.5 µM; in test [7] it was 32.7 µM.

Consider `CC(C)N1CC2CC(CN(C(=O)c3ccccc3)C2)C1`, for which the concentration for total growth inhibition (TGI) in test [8], in test [1], in test [2], in test [3], in test [4] and in [9] was above 100 µM throughout. Besides, the concentration for total growth inhibition (TGI) in test [6] and in test [7] was above 100 µM throughout.

Turning to `CN(C)CCNC(=O)c1cc(Cl)cc2ccc(-c3ccccc3)nc12`, the TGI turned out to be 6.01 µM in test [8]; 13.8 µM in test [1]; 7.09 µM in test [2]; 15.4 µM in test [3]; 15.8 µM in test [4]; 15.8 µM in [9]. Further, the total growth inhibition concentration (TGI) in test [5] came to 10.7 µM.

With `O=c1[nH]c2nc3ccccc3nc2[nH]c1=O`, the total growth inhibition concentration (TGI) in test [8], in [1], in test [2], in [3], in [4] and in test [5] was above 100 µM throughout. The concentration for total growth inhibition (TGI) in test [6] and in [7] was above 100 µM throughout.
